Laboratory results as given in US20220112187A1, “PYRAZOLOPYRIDINE AMINE COMPOUNDS FOR THE TREATMENT OF AUTOIMMUNE DISEASE” (Hoffmann-La Roche Inc., priority 2018, published 2022).

The compounds below were run against T1, human TLR9 (Homo sapiens, UniProt Q9NR96) (assay: HEK293-Blue-hTLR-9 cells assay (SEAP reporter, ODN2006 stimulation)). Details: HEK293-Blue-hTLR9 cells, ODN2006 ligand, 20 hrs incubation.
T1 sequence (Q9NR96 26-1032): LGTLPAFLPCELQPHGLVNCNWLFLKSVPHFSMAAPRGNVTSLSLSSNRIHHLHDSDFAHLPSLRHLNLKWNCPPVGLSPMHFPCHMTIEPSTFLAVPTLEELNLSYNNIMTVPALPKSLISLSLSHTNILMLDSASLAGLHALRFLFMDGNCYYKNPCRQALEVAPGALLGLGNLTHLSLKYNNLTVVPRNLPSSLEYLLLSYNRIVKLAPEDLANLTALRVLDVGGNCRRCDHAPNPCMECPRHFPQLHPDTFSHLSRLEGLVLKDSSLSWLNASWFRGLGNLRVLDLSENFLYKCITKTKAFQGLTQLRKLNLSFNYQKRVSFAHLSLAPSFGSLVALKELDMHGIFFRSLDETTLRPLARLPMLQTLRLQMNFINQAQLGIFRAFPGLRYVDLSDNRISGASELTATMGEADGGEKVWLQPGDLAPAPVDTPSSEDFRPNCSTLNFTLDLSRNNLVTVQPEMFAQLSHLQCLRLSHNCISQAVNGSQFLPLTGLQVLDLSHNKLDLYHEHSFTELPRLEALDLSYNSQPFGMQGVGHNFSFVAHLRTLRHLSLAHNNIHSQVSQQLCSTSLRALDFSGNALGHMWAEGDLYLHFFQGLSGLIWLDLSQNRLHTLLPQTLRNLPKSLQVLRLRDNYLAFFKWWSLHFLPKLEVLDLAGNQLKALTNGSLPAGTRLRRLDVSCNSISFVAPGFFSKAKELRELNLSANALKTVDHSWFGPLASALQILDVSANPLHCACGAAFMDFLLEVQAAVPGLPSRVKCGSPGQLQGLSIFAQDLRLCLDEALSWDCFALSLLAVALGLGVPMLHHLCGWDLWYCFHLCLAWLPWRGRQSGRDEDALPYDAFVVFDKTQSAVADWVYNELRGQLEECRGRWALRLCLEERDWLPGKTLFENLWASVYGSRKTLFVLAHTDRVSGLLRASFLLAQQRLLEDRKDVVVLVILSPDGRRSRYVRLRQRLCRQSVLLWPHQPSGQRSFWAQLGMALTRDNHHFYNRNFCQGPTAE
Format: cell-based
Text: A stable HEK293-Blue-hTLR-9 cell line was purchased from InvivoGen (Cat. #: hkb-htlr9, San Diego, Calif., USA). These cells were originally designed for studying the stimulation of human TLR9 by monitoring the activation of NF-κB. A SEAP (secreted embryonic alkaline phosphatase) reporter gene was placed under the control of the IFN-β minimal promoter fused to five NF-κB and AP-1-binding sites. The SEAP was induced by activating NF-κB and AP-1 via stimulating HEK-Blue hTLR9 cells with TLR9 ligands. Therefore the reporter expression was declined by TLR9 antagonist under the stimulation of a ligand, such as ODN2006 (Cat. #: tlr1-2006-1, Invivogen, San Diego, Calif., USA), for incubation of 20 hrs. The cell culture supernatant SEAP reporter activity was determined using QUANTI-Blue™ kit (Cat. #: rep-qb1, Invivogen, San Diego, Calif., USA) at a wavelength of 640 nm, a detection medium that turns purple or blue in the presence of alkaline phosphatase.
HEK293-Blue-hTLR9 cells were incubated at a density of 250,000˜450,000 cells/mL in a volume of 170 μL in a 96-well plate in Dulbecco's Modified Eagle's medium (DMEM) containing 4.5 g/L glucose, 50 U/mL penicillin, […], […], 2 mM L-glutamine, 10% (v/v) heat-inactivated fetal bovine serum with addition of 20 μL test compound in a serial dilution in the presence of final DMSO at 1% and 10 μL of 20 uM ODN2006 in above DMEM, perform incubation under 37° C. in a CO2 incubator for 20 hrs. Then 20 μL of the supernatant from each well was incubated with 180 μL Quanti-blue substrate solution at 37° C. for 2 hrs and the absorbance was read at 620-655 nm using a spectrophotorneter. The signalling pathway that TLR9 activation leads to downstream NF-κB activation has been widely accepted, and therefore similar reporter assay was modified for evaluating TLR9 antagonist.

Q: With `C[C@@H]1CN(c2ccc(C#N)n3nccc23)C[C@H](CN2CC3(CCCNCC3)C2)O1` [Example 46, 4-[(2S,6R)-2-(2,8-diazaspiro[3.6]decan-2-ylmethyl)-6-methyl-morpholin-4-yl]pyrazolo[1,5-a]pyridine-7-carbonitrile] as the compound, how does the IC50 read?
A: 140 nM

Q: Which IC50 does the source give for `C[C@@H]1CN(c2ccc(C#N)n3nccc23)C[C@H](CN2CCC(N3CCCC3)CC2)O1` [Example 54, 4-[(2R,6S)-2-methyl-6-[(4-pyrrolidin-1-yl-1-piperidyl)methyl]morpholin-4-yl]pyrazolo[1,5-a]pyridine-7-carbonitrile] here?
A: 510 nM

Q: For `C[C@@H]1CN(c2ccc(C#N)n3nccc23)C[C@H](CN2CCC[C@@H]3NCCC32)O1` (stereo partly drawn) [Example 63, 4-[(2R,6S)-2-methyl-6-[[cis-(3aS,7aS)-1,2,3,3a,5,6,7,7a-octahydropyrrolo[3,2-b]pyridin-4-yl]methyl]morpholin-4-yl]pyrazolo[1,5-a]pyridine-7-carbonitrile], which IC50 is on record?
A: 5900 nM

Q: `C[C@@H]1CN(c2ccc(C#N)n3nccc23)C[C@H](CN2CCC3(CCCN3)CC2)O1` [Example 53, 4-[(2S,6R)-2-(1,8-diazaspiro[4.5]decan-8-ylmethyl)-6-methyl-morpholin-4-yl]pyrazolo[1,5-a]pyridine-7-carbonitrile] was tested. Which IC50 did it give?
A: 160 nM

Q: How did the IC50 turn out when `C[C@@H]1CN(c2ccc(C#N)n3nccc23)C[C@H](CN2CCC3(CCCCN3)C2)O1` (stereo partly drawn) [Example 42, 4-[(2S,6R)-2-(2,6-diazaspiro[4.5]decan-2-ylmethyl)-6-methyl-morpholin-4-yl]pyrazolo[1,5-a]pyridine-7-carbonitrile] was run?
A: 1700 nM

Q: How did the IC50 turn out when `C[C@@H]1CN(c2ccc(C#N)n3nccc23)C[C@H](CN2CCC(N)C(F)(F)C2)O1` (stereo partly drawn) [Example 34, 4-[(2S,6R)-2-[(4-amino-3,3-difluoro-1-piperidyl)methyl]-6-methyl-morpholin-4-yl]pyrazolo[1,5-a]pyridine-7-carbonitrile] was run?
A: 99000 nM

Q: Which IC50 does the source give for `C[C@@H]1CN(c2ccc(C#N)n3nccc23)C[C@H](CN2CCC23CNC3)O1` [Example 55, 4-[(2S,6R)-2-(1,6-diazaspiro[3.3]heptan-1-ylmethyl)-6-methyl-morpholin-4-yl]pyrazolo[1,5-a]pyridine-7-carbonitrile] here?
A: 25000 nM

Q: With `C[C@@H]1CN(c2ccc(C#N)n3nccc23)C[C@H](CN2C3CCC2CC(N)C3)O1` (stereo partly drawn) [Example 37, 4-[(2S,6R)-2-[(3-amino-8-azabicyclo[3.2.1]octan-8-yl)methyl]-6-methyl-morpholin-4-yl]pyrazolo[1,5-a]pyridine-7-carbonitrile] as the compound, how does the IC50 read?
A: 78 nM

Q: For `C[C@@H]1CN(c2ccc(C#N)n3nccc23)C[C@H](CN2CCC3(CC2)CNCCO3)O1` [Example 60, 4-[(2R,6S)-2-methyl-6-(1-oxa-4,9-diazaspiro[5.5]undecan-9-ylmethyl)morpholin-4-yl]pyrazolo[1,5-a]pyridine-7-carbonitrile], which IC50 is on record?
A: 180 nM

Q: How did the IC50 turn out when `C[C@@H]1CN(c2ccc(C#N)n3nccc23)C[C@H](CN2C[C@H]3CC[C@@H](N(C)C)[C@H]3C2)O1` (racemic) [Example 75, 4-[(2S,6R)-2-[[4-(dimethylamino)-3,3a,4,5,6,6a-hexahydro-1H-cyclopenta[c]pyrrol-2-yl]methyl]-6-methyl-morpholin-4-yl]pyrazolo[1,5-a]pyridine-7-carbonitrile] was run?
A: 290 nM

Q: For `C[C@@H]1CN(c2ccc(C#N)n3nccc23)C[C@H](CN2CCC(N)(c3ccccc3)CC2)O1` [Example 73, 4-[(2S,6R)-2-[(4-amino-4-phenyl-1-piperidyl)methyl]-6-methyl-morpholin-4-yl]pyrazolo[1,5-a]pyridine-7-carbonitrile], which IC50 is on record?
A: 220 nM

Q: `C[C@@H]1CN(c2ccc(C#N)n3nccc23)C[C@H](CN2CCCC3NCCCC32)O1` (stereo partly drawn) [Example 64, 4-[(2S,6R)-2-(3,4,4a,5,6,7,8,8a-octahydro-2H-1,5-naphthyridin-1-ylmethyl)-6-methyl-morpholin-4-yl]pyrazolo[1,5-a]pyridine-7-carbonitrile] was tested. Which IC50 did it give?
A: 2200 nM

Q: For `C[C@@H]1CN(c2ccc(C#N)n3nccc23)C[C@H](CN2CCN(C(=O)CN)CC2)O1` [Example 14, 4-[(2S,6R)-2-[[4-(2-aminoacetyl)piperazin-1-yl]methyl]-6-methyl-morpholin-4-yl]pyrazolo[1,5-a]pyridine-7-carbonitrile], which IC50 is on record?
A: 3000 nM

Q: With `C[C@@H]1CN(c2ccc(C#N)n3nccc23)C[C@H](CN2CC[C@@H]3CNCC32)O1` (stereo partly drawn) [Example 62, 4-[(2R,6S)-2-methyl-6-[[cis-(3aR,6aR)-3,3a,4,5,6,6a-hexahydro-2H-pyrrolo[3,4-b]pyrrol-1-yl]methyl]morpholin-4-yl]pyrazolo[1,5-a]pyridine-7-carbonitrile] as the compound, how does the IC50 read?
A: 2400 nM

Q: Which IC50 does the source give for `C[C@@H]1CN(c2ccc(C#N)n3nccc23)C[C@H](CNC2CCN(C)CC2)O1` [Example 7, 4-[(2R,6S)-2-methyl-6-[[(1-methyl-4-piperidyl)amino]methyl]morpholin-4-yl]pyrazolo[1,5-a]pyridine-7-carbonitrile] here?
A: 320 nM

Q: For `C[C@@H]1CN(c2ccc(C#N)n3nccc23)C[C@H](CN2C3CCC2CNC3)O1` [Example 43, 4-[(2S,6R)-2-(3,8-diazabicyclo[3.2.1]octan-8-ylmethyl)-6-methyl-morpholin-4-yl]pyrazolo[1,5-a]pyridine-7-carbonitrile], which IC50 is on record?
A: 10000 nM

Q: How did the IC50 turn out when `C[C@@H]1CN(c2ccc(C#N)n3nccc23)C[C@H](CN2CCC3(CCNC3)C2=O)O1` (stereo partly drawn) [Example 21, 4-[(2R,6R)-2-methyl-6-[(1-oxo-2,7-diazaspiro[4.4]nonan-2-yl)methyl]morpholin-4-yl]pyrazolo[1,5-a]pyridine-7-carbonitrile] was run?
A: 16000 nM

Q: With `C[C@@H]1CN(c2ccc(C#N)n3nccc23)C[C@H](CN2CC3CCC(C2)N3)O1` [Example 31, 4-[(2S,6R)-2-(3,8-diazabicyclo[3.2.1]octan-3-ylmethyl)-6-methyl-morpholin-4-yl]pyrazolo[1,5-a]pyridine-7-carbonitrile] as the compound, how does the IC50 read?
A: 10000 nM

Q: Which IC50 does the source give for `C[C@@H]1CN(c2ccc(C#N)n3nccc23)C[C@H](CN2CCC(N3CCCCCC3)CC2)O1` [Example 4, 4-[(2S,6R)-2-[[4-(azepan-1-yl)-1-piperidyl]methyl]-6-methyl-morpholin-4-yl]pyrazolo[1,5-a]pyridine-7-carbonitrile] here?
A: 280 nM

Q: `CC1CNCCN1C[C@H]1CN(c2ccc(C#N)n3nccc23)C[C@@H](C)O1` (single isomer, unassigned) [Example 50A] was tested. Which IC50 did it give?
A: 16000 nM

Q: How did the IC50 turn out when `C[C@@H]1CN(c2ccc(C#N)n3ncc(F)c23)C[C@H](CN2CCCC3(CCNC3)C2)O1` (stereo partly drawn) [Example 68, 3-fluoro-4-[(2S,6R)-2-(2,7-diazaspiro[4.5]decan-7-ylmethyl)-6-methyl-morpholin-4-yl]pyrazolo[1,5-a]pyridine-7-carbonitrile] was run?
A: 110 nM

Q: Which IC50 does the source give for `C[C@@H]1CN(c2ccc(C#N)n3nccc23)C[C@H](CN2CC3CCNCC3C2)O1` (stereo partly drawn) [Example 49, 4-[(2S,6R)-2-(1,3,3a,4,5,6,7,7a-octahydropyrrolo[3,4-c]pyridin-2-ylmethyl)-6-methyl-morpholin-4-yl]pyrazolo[1,5-a]pyridine-7-carbonitrile] here?
A: 120 nM

Q: `C[C@@H]1CN(c2ccc(C#N)n3nccc23)C[C@H](CN2CCNCC2Cc2ccccc2)O1` (stereo partly drawn) [Example 59, 4-[(2S,6R)-2-[(2-benzylpiperazin-1-yl)methyl]-6-methyl-morpholin-4-yl]pyrazolo[1,5-a]pyridine-7-carbonitrile] was tested. Which IC50 did it give?
A: 1500 nM
